One data set relates to OVCAR-3 cells. Kind of data set: OVCAR-3 cell proliferation (Cell Titer-Glo, 10 days). The data set is classed as cell-based, human. The method in brief: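 IC50 was fitted by nonlinear regression of percent inhibition versus the 0.1% DMSO control. Luminescence was read with Cell Titer-Glo after 10 days of co-culture of logarithmic-phase cells (400/well) with compound at 0.12 nM–10 μM final, in medium with 20% fetal bovine serum and 0.01 mg/mL insulin.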
(In general: Cellular ATP, detected with luciferase, serves as a proxy for viable cell number.)

For another data set, the system named is HT-29 cells. In words: HT-29 cell proliferation (Cell Titer-Glo, 6 days). Type of data set: cell-based. The settings on record: Homo sapiens, HT-29, 144 h. On the procedure:
The inhibitory effect on the KIF18A target by the compounds of the present disclosure was evaluated by testing the inhibitory effect on proliferation of HT-29 cells by the compounds of the present disclosure.
HT-29 (ATCC, HTB-38) cells were cultured in McCoy's 5a complete medium (Gibco, 12330-031) containing 10% fetal bovine serum (Gibco, 10099-141C), 100 U penicillin and […] streptomycin (Gibco, 15140-122). The Promega kit Cell Titer-Glo (Promega: G7572) was used in this method for test. • 1. HT-29 cells were cultured in T75 cell flasks (Corning, 430641) and the medium was placed in a 37° C., 5% CO2 incubator. Cells were passaged when reaching a cell density of 70%-80%, approximately twice per week. • 2. To perform the experiment, the test compounds were dissolved in DMSO to prepare a 10 mM stock solution, and the test compounds were added to the 384-well cell test plate (Corning, 3765) at the predetermined concentration using ECHO. • 3. The cell culture flask was taken out, the medium was removed, and the cells were rinsed with PBS. Then 2 mL of trypsin (with 0.25% EDTA) was added, and the flask was placed in the incubator for digestion for 4 minutes. • 4. Digestion was stopped by adding 4 mL of complete medium and the cell suspension was transferred to a centrifuge tube and centrifuged at 1000 rpm for 4 minutes. • 5. The cells were resuspended in 6 mL of complete medium, followed by cell counting. The cell density was adjusted to 4,170 cells/mL, and the cells were added to a 384-well plate at 60 μL/well. • 6. The 384-well plate was centrifuged at 500 rpm for 1 minute, and then placed in a 37° C., 5% CO2 incubator for 6 days of cultivation. • 7. Six days later, the cell culture plate was equilibrated for 10 minutes at room temperature, 25 μL of Cell Titer-Glo was added to each well, and the mixture was shaken and mixed well and let stand for 5 minutes. The luminescence values for samples in various wells were read using a microplate reader in Luminescence mode.
The percentage of inhibition of cell proliferation by the test compound at each concentration was calculated by comparing with the values of the control group (0.3% DMSO). The IC50 values of the compounds were obtained by concentration-inhibition rate nonlinear regression analysis of the test compounds using GraphPad Prism 9.

For a further data set, the system named is HCT116 cells. Kind of data set: HCT116 cell anti-proliferation assay. Type of data set: cell-based. The conditions noted are these: Homo sapiens, HCT-116, 144 h, 6 days, Cell Titer-Glo. On the procedure:
HCT116 (ATCC, CCL-247) cells were cultured in McCoy's 5a complete medium (Gibco, 12330-031) containing 10% fetal bovine serum (Gibco, 10099-141C), 100 U penicillin and 100 μg/mL streptomycin (Gibco, 15140-122). The Promega kit Cell Titer-Glo (Promega: G7572) was used in this method for test.
(§1) HCT116 cells were cultured in T75 cell flasks (Corning, 430641) and the cells were placed in a 37° C., 5% CO2 incubator. Cells were passaged when reaching a cell density of 70%-80%, approximately twice per week. To perform the experiment, the test compounds were dissolved in DMSO to prepare a 10 mM stock solution, and the test compounds were added to the 384-well cell test plate (Corning, 3765) at the predetermined concentration (19.5 nM-[…]) using ECHO. HCT1169 cells were digested and 150 cells (60 μL medium) were seeded per well in the test plate. The 384-well plate was then centrifuged at 500 rpm for 1 minute, and then placed in a 37° C., 5% CO2 incubator for 6 days of cultivation. Six days later, the cell culture plate was equilibrated for 10 minutes at room temperature, 25 μL of Cell Titer-Glo was added to each well, and the mixture was shaken and mixed well and let stand for 5 minutes. The luminescence values for samples in various wells were read using a microplate reader in Luminescence mode.
The percentage of inhibition of cell proliferation by the test compound at each concentration was calculated by comparing with the values of the control group (0.2% DMSO). The IC50 values of the compounds were obtained by concentration-inhibition rate nonlinear regression analysis of the test compounds using GraphPad Prism 9.

In another data set the test system is A2780 cells. In words: A2780 cell anti-proliferation assay. Type of data set: cell-based. The conditions noted are these: Homo sapiens, A2780, 144 h, 6 days, Cell Titer-Glo. On the procedure:
A2780 (ECACC) cells were cultured in RPMI-1640 complete medium (Gibco, A1049101) containing 10% fetal bovine serum (Gibco, 10099-141C), 100 U penicillin and 100 μg/mL streptomycin (Gibco, 15140-122). The Promega kit Cell Titer-Glo (Promega: G7572) was used in this method for test.
as §1, with “A2780” for “HCT116”, “once every five days.” for “approximately twice per week.”, “A2780” for “HCT1169”, “4000” for “150”
The percentage of inhibition of A2780 cell proliferation by the test compound at each concentration was calculated by comparing with the values of the control group (0.2% DMSO). The IC50 values of the compounds were obtained by concentration-inhibition rate nonlinear regression analysis of the test compounds using GraphPad Prism 9.

For the next data set, the target named is KIF18A (Homo sapiens (Human), UniProt Q8NI77). Kind of data set: KIF18A ATPase activity under tubulin stimulation (ADP-Glo assay). Type of data set: biochemical. The conditions noted are these: KIF18A 30 nM, ATP 150 μM, pig microtubules.
Chain of KIF18A (Q8NI77 whole entry): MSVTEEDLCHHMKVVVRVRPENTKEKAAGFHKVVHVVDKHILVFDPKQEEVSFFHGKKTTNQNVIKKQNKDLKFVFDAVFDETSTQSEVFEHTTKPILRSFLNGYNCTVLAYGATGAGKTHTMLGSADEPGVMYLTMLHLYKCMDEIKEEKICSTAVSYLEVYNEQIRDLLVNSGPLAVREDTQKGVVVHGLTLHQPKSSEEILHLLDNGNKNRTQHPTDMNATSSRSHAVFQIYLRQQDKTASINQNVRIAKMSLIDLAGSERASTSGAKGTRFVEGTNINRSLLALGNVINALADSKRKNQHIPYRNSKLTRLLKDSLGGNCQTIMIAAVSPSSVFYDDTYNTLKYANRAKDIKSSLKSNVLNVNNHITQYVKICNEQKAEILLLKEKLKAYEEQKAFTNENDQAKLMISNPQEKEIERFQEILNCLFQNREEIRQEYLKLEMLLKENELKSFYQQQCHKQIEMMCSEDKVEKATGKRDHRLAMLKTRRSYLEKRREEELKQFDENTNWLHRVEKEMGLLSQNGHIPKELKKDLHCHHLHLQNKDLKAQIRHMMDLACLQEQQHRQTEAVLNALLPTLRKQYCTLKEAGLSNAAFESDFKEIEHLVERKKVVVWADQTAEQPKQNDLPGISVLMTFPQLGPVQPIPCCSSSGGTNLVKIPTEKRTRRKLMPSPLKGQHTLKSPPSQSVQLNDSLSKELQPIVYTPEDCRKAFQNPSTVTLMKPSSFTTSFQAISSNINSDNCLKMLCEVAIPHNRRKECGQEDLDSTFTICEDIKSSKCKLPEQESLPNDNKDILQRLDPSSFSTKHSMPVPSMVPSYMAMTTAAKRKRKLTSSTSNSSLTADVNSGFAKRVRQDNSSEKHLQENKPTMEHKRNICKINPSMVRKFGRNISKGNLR
Chain of KIF18A (P02550 whole entry partner): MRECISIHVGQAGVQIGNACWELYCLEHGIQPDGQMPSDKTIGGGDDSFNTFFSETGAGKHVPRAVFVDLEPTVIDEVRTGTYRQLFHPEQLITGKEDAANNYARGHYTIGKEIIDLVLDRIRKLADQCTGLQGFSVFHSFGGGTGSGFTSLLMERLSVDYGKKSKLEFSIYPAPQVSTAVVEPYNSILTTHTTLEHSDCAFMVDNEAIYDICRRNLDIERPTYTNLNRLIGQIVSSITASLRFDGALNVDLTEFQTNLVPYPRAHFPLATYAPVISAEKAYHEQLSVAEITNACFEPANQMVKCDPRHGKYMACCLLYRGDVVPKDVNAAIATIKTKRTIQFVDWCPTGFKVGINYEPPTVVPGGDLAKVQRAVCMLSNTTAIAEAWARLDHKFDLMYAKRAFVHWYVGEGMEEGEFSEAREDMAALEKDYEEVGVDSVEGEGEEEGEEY
Chain of KIF18A (P02554 whole entry partner): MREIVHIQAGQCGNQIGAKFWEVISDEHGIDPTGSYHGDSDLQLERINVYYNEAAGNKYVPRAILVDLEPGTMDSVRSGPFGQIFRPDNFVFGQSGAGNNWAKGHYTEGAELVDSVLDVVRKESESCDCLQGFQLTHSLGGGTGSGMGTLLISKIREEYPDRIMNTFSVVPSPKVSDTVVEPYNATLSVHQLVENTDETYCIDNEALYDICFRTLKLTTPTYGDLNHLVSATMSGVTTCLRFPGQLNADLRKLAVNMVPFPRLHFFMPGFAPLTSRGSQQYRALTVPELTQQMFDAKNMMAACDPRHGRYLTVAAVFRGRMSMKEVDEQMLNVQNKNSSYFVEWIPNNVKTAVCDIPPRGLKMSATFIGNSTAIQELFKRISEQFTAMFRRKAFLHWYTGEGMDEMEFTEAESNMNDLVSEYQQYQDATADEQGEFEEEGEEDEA
Another data set relates to HCC1954 cells. Kind of data set: HCC1954 cell proliferation (Cell Titer-Glo, 6 days). The data set is classed as cell-based. The settings on record: KIF18A-sensitive tumor cells. On the procedure: (§2) The inhibitory effect on the KIF18A target by the compounds of the present disclosure was evaluated by testing the inhibitory effect on proliferation of HCC1954 and HCC1395 cells by the compounds of the present disclosure.
(§3) HCC1954 (ATCC, CRL-2388) and HCC1395 (ATCC, CRL-2324) cells were cultured separately in RPMI-1640 complete medium (Gibco, A1049101) containing 20% fetal bovine serum (Gibco, 10099141C), 100 U penicillin, and 100 μg/mL streptomycin (Gibco, 15140-122). The Promega kit Cell Titer-Glo (Promega: G7572) was used in this method for test. • 1. HCC1954 (KIF18A-sensitive tumor cells) and HCC1395 (KIF18A-insensitive tumor cells) were cultured separately in T75 cell culture flasks (Corning, 430641), and the medium was placed in a 37° C., 5% CO2 incubator. • 2. When the cell density reached 70% to 80% (about 2 to 3 times per week), cells are passaged with trypsin (0.25% EDTA). • 3. The cell culture flask was taken out and the cells were separated by adding 2 mL of trypsin (0.25% EDTA source) for 5 minutes. • 4. Digestion was stopped by adding 8 mL of RPM1-1640 medium and the cell suspension was transferred to a centrifuge tube and centrifuged at 1000 rpm for 5 minutes. • 5. The cells were resuspended with 5 mL of RPMI-1640 medium. Cell density was adjusted to 5×10^3/mL (HCC1954), and 2.5×10^4/mL (HCC1395), respectively. • 6. 40 μL of cell solution was added to the 384-well plate (Corning, 3765). • 7. The 384-well plate was centrifuged at 1000 rpm for 1 minute. • 8. The cells were cultured overnight in a 37° C., 5% CO2 incubator. • 9. The next day, 40 nL of compound solution was added to the 384-well plate using Echo650. The plate was then placed in a 37° C., 5% CO2 incubator for 6 days. • 10. After 6 days, 20 μL of Cell-Titer-Glo (Promega, G7572) reagent was added per well. • 11. Luminescence values were measured using the EnVision Xcite Multilabel Reader (PerkinElmer, 2105-0020).
(§4) The percentage of inhibition of cell proliferation by the test compound at each concentration was calculated by comparing with the values of the control group (0.1% DMSO). The IC50 values of the compounds were obtained by concentration-inhibition rate nonlinear regression analysis of the test compounds using GraphPad Prism 9.

Another data set has as its system HCC1395 cells. In words: HCC1395 cell proliferation (Cell Titer-Glo, 6 days). The conditions noted are these: KIF18A-insensitive tumor cells. Type of data set: cell-based. On the procedure: as §2, §3, §4
The nature of a further data set: PK study in ICR mice. Type of data set: in vivo, mouse. The settings on record: both sexes, mouse, plasma, route and dose not given. On the procedure: 6 ICR mice (male/female) were divided into two groups, administered orally and intravenously, respectively, with 3 mice/group. The mice were fasted for 10-14 hours prior to dosing with free access to water.
The test compound was weighed according to the administration dose, and prepared into a dose formulation at appropriate concentrations (for rats and mice, intravenous and oral administration at a volume of 5 mL/kg and 10 mL/kg, respectively), wherein the intravenous injection was a clear solution, and the oral preparation was a clear solution or a homogeneous suspension.
Animals were dosed by intravenous injection and oral gavage, and blood samples were collected at 0.033, 0.083, 0.25, 0.5, 1, 2, 4, 8, and 24 h after intravenous administration and 0.083, 0.25, 0.5, 1, 2, 4, 6, 8, and 24 h after oral administration. Whole blood was centrifuged at 6800 g for 6 min at 4° C. and the top plasma was stored in a −80° C. freezer for later analysis.
The DMSO stock solution of the test compound was diluted into a series of working solutions with a methanol or an acetonitrile solution, and added to a blank plasma matrix, and standard curves were generated and quality control samples were prepared. An appropriate volume of the plasma sample was taken and a suitable multiple of methanol or acetonitrile containing an internal standard was added for protein precipitation based on the response. After centrifugation of all samples at 18000 g for 10 min at 4° C., an appropriate amount of supernatant was taken for LC-MS/MS injection analysis.
Drug concentration-time curves in plasma were plotted according to test concentrations, and pharmacokinetic parameters were calculated using noncompartmental analysis by WinNonlin software, including: half-life (T½), area under the concentration-time curve from time zero to time t (AUCO-t), clearance (CL), volume of distribution at steady state (Vss) and bioavailability (F), with some of the test results shown in Table 4.

Structures are written as SMILES. Like-named read-outs stand apart in the source and are kept apart here.

What is called IC50 is the point on the concentration scale where inhibition reaches its midpoint. For the compound `COc1ccc(NC(=O)c2ccc(NS(=O)(=O)CCO)cc2N2CCC3(CC2)CC3)c2cc3n(c12)CCOC3` [Compound 404, 4-((2-hydroxyethyl)sulfonamido)-N-(6-methoxy-3,4-dihydro-1H-[1,4]oxazinyl[4,3-a]indol-9-yl)-2-(6-azaspiro[2.5]oct-6-yl)benzamide], the 50% inhibitory concentration (IC50) in the data set with OVCAR-3 cells (Homo sapiens, OVCAR-3, 240 h) was at most 0.05 µM; in the data set with HT-29 cells it was at most 0.2 µM; with HCT116 cells, above 10 µM; in the data set with A2780 cells, above 10 µM.
In the case of `Cc1cc(NC(=O)c2c(N)cc(NS(=O)(=O)CCO)cc2N2CCC3(CC2)CC3)nc(N2CCC(F)(F)CC2)n1` [Example 3, 2-amino-N-(2-(4,4-difluoropiperidin-1-yl)-6-methylpyrimidin-4-yl)-4-(2-hydroxyethylsulfonamido)-6-(6-azaspiro[2.5]octan-6-yl)benzamide], the IC50 at KIF18A is 0.05 to 0.5 µM; in the data set with OVCAR-3 cells (Homo sapiens, OVCAR-3, 240 h) it was at most 0.05 µM; in the data set with HCC1954 cells (Homo sapiens, HCC1954, 144 h) it was at most 0.01 µM; with HCC1395 cells (Homo sapiens, HCC1395, 144 h), above 5 µM.
As for `Nc1cc(NS(=O)(=O)CCO)cc(N2CCC3(CC2)CC3)c1C(=O)Nc1cccc2c1ccn2CC1CC1` [Example 41], the results for the concentration for half-maximal inhibition (IC50) at KIF18A, in the data set on OVCAR-3 cells and with HCC1954 cells were 0.05 to 0.5 µM, 0.05 to 0.5 µM and 0.01 to 0.5 µM, respectively.
As to `O=C(Nc1cccc2c1cc1n2CCC1)c1ccc(NS(=O)(=O)CCO)cc1N1CCC2(CC1)CC2` [Example 129, N-(2,3-dihydro-1H-pyrrolo[1,2-a]indol-8-yl)-4-((2-hydroxyethyl)sulfonamide)-2-(6-azaspiro[2.5]octan-6-yl)benzamide], the 50% inhibitory concentration (IC50) against KIF18A was at most 0.05 µM; in the data set on HCC1954 cells, at most 0.01 µM; in the data set on HCC1395 cells, above 5 µM.
Usually AUC stands for concentration integrated over time. The term Cmax denotes the maximum level reached in the sampled fluid or tissue. For the compound `O=C(Nc1cccc2c1cc1n2CC2(CC2)OC1)c1ccc(NS(=O)(=O)CCO)cc1N1CCC(=C(F)F)CC1` [Example 485, 2-(4-(difluoromethylene)piperidin-1-yl)-4-((2-hydroxyethyl)sulfonamido)-N-(1′H,4′H-spiro[cyclopropane-1,3′-[1,4]oxazino[4,3-a]indole]-9′-yl)benzamide], the IC50 on KIF18A was at most 0.05 µM; in the data set on OVCAR-3 cells (Homo sapiens, OVCAR-3, 240 h), 0.05 to 0.5 µM; in the data set with HT-29 cells it was 0.2 to 1 µM. Besides, the AUC in the data set “PK study in ICR mice” (read-out: AUC) came out at 33300 ng·h/mL. For the same compound, in “PK study in ICR mice” (read-out: Cmax), the Cmax is 3740 ng/mL.
In the case of `CC1(C)Cc2nc3c(NC(=O)c4ccc(NS(=O)(=O)CCO)cc4N4CCC5(CC4)CC5)cccc3n2C1` [Example 490, N-(2,2-dimethyl-2,3-dihydro-1H-benzo[d]pyrrolo[1,2-a]imidazol-5-yl)-4-((2-hydroxyethyl)sulfonamido)-2-(6-azaspiro[2.5]oct-6-yl)benzamide], the IC50 lay in the range of 0.05 to 0.5 µM at KIF18A; 0.05 to 0.5 µM in the data set on OVCAR-3 cells (Homo sapiens, OVCAR-3, 240 h); 0.01 to 0.5 µM with HCC1954 cells (Homo sapiens, HCC1954, 144 h).

The values above are taken from patent publication US20260070887A1 (Shenzhen Zhongge Biological Technology Co., Ltd., priority 2022, published 2026).
